Like-named read-outs stand apart in the source and are kept apart here.
How the values were obtained:
HIV-integrase = biological target: T1, HIV-integrase (Human immunodeficiency virus type 1 group M subtype B, UniProt P12497); experiment: HIV-Integrase Inhibition Activity (SPA bead strand-transfer assay); assay type: biochemical
T1 construct: Recombinant integrase (0.26 ng) was incubated with the beads
How it was run: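 Strand-transfer read-out: CPM from P33-labelled target DNA (0.1 fmol) joined to bead-bound biotin substrate DNA (5 pmole), with EDTA stop at 10 mM final. Integrase (0.26 ng) prebound to streptavidin SPA beads 90 min, 37° C, and washed before adding inhibitor.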

NL-Rluc virus = experiment: Inhibition of HIV replication (recombinant NL-Rluc virus, luciferase); assay type: cell-based
HIV-1 303B = experiment: microbe, parasite or virus in culture; assay type: cell-based; settings: for EC50: Human immunodeficiency virus 1, MT2, 120 h; for overall antiviral effect of the two-drug combination with Example 19 (in words): classification from combination indices and confidence intervals; for Combination Indices at 50% HIV Inhibition (Confidence Interval) / Combination Indices at 75% HIV Inhibition (Confidence Interval) / Combination Indices at 90% HIV Inhibition (Confidence Interval): in combination with Example 19, 95% CI in parenthesis
Protocol: Virus and cell lines. The T-cell line, MT-2, was obtained through the AIDS Research and Reference Reagent Program. MT-2 cells were sub-cultured twice a week in RPMI 1640 medium supplemented with 10% fetal bovine serum, 2 mM L-glutamine, and 10 mM HEPES buffer pH 7.5. The HIV-1303B virus is a molecular clone derived from the NL4-3 strain of HIV-1 that was obtained from the NIH AIDS Research and Reference Reagent Program. For combinations with enfuvirtide, the NL36G virus was used. […] Virus stocks were made by transfecting 293T cells with a proviral DNA clone using LipofectAMINE PLUS (Invitrogen), according to the manufacturer's instructions. Three days post-transfection, virus was harvested and passaged once in MT-2 cells before titration in MT-2 cells.
Chemicals. Example 19, atazanavir, didanosine, stavudine, efavirenz, and enfuvirtide (T-20) were synthesized by Bristol-Myers Squibb using published or known reactions. […] Tenofovir was tested as tenofovir disopoxil fumarate. Zidovudine and zalcitabine were purchased from Sigma, and emtricitabine from Moravek Biochemicals.
Drug Susceptibility and Cytotoxicity Assays. For drug susceptibility assays, MT-2 cells were infected with HIV-1 303B (or NL36G), at an MOI of 0.001, and seeded into 96-well microtiter plates (2.5×10^5 cells/ml) containing serial dilutions of test compounds. […] Each drug ratio consisted of an array of 3-fold serial dilutions, and was performed with eight or more replicas on separate multi-well plates. HIV infected cells were incubated at 37° C. in 5% CO2, and on day five post-infection, the extent of virus replication was measured by determining cell viability using the CellTiter 96 Aqueous Non-Radioactive Cell Proliferation Assay (Promega). […] Cytotoxicity assays were performed in parallel with the combination experiments. Here, uninfected cells were exposed to the same drug combinations, and assayed after five days for cell viability using the MTS assay.
Analysis of Drug Combination Effects. For determination of combination index (CI) values, drugs were diluted in a fixed ratio and multiple ratios were analyzed. The drug serial dilutions spanned a range of concentrations near the EC50 value of each compound, so that equivalent antiviral activities could be compared. The normalized responses from each therapy are fit to the four-parameter logistic model with a common minimum and maximum across all therapies. Conceptually, this equation can be written as
In this equation, Fa stands for “fraction affected,” and represents the fraction of the viral load that has been inactivated. […] The EC50, represented by the Ci in the above equation, is the drug concentration that is expected to reduce the amount of virus by 50%, and the Bi are the parameters that reflects the slope of the concentration-response curve. For this assay, A is the bottom plateau common to all curves, D is the common top plateau, Bj is the “slope” parameter for the jth therapy, and Cj is the concentration that produces an effect equal to the average of A and D for the jth therapy. Therapies 1 and 2 correspond to mono therapies 1 and 2, respectively. Therapies 3, 4, and 5 correspond to the three combination therapies. EC50 values for each drug were determined from the single drug experiments, using the above equation. The equation was fit using a nonlinear regression routine (Proc Nlin) in PC SAS version 8.2 (SAS Institute Inc.).
To assess antiviral effects of different drug combination treatments, combination indices (CIs) were calculated according to Chou and Rideout. The combination index was computed as
In this equation [Dm]1 and [Dm]2 are the concentrations of drugs that would individually produce a specific level of effect, while [D]1 and [D]2 are the concentrations of drugs in combination that would produce the same level of effect.
Theoretically, additivity is implied if the CI is equal to one, synergy if the CI is less than one, and antagonism if the CI is greater than one.

[1] = Table 2a, read-out: HIV-Integrase Inhibition Activity
[2] = Human immunodeficiency virus 1, read-out: Inhibition of HIV replication
[3] = EC50 ratio Example 19:comparator 1:1
[4] = EC50 ratio Example 19:comparator 1:2.5
[5] = EC50 ratio Example 19:comparator 2.5:1

For CC1(C)OCCn2c1nc(C(=O)NCc1ccc(F)cc1P(=O)(O)OCCO)c(O)c2=O [Example 292, Phosphonic acid, [5-fluoro-2-[[[(4,6,7,9-tetrahydro-3-hydroxy-9,9-dimethyl-4-oxopyrimido[2,1-c][1,4]oxazin-2-yl)carbonyl]amino]methyl]phenyl]-, mono(2-hydroxyethyl) ester], the IC50 (HIV-integrase; [1]) was 2 to 100 nM and the EC50 (NL-Rluc virus; [2]) was greater than 1000 nM.
For CC1(C)OCCCn2c1nc(C(=O)NCc1ccc(F)cc1-n1ccnn1)c(O)c2=O [Example 300, 6H-Pyrimido[2,1-c][1,4]oxazepine-2-carboxamide, N-[[4-fluoro-2-(1H-1,2,3-triazol-1-yl)phenyl]methyl]-4,7,8,10-tetrahydro-3-hydroxy-10,10-dimethyl-4-oxo-], the IC50 (HIV-integrase; [1]) was 2 to 100 nM and the EC50 (NL-Rluc virus; [2]) was 3 to 100 nM.
Work on CC1(C)OCCn2c1nc(C(=O)NCc1ccc(F)cc1P(=O)(OCCO)OCCO)c(O)c2=O [Example 293, Phosphonic acid, [5-fluoro-2-[[[(4,6,7,9-tetrahydro-3-hydroxy-9,9-dimethyl-4-oxopyrimido[2,1-c][1,4]oxazin-2-yl)carbonyl]amino]methyl]phenyl]-, bis(2-hydroxyethyl) ester] yielded an IC50 (HIV-integrase; [1]) of 2 to 100 nM and an EC50 (NL-Rluc virus; [2]) of 100 to 1000 nM.
CN(C)C(=O)Oc1cc(F)ccc1CNC(=O)c1nc2n(c(=O)c1O)CCOC2(C)C [Example 96, Carbamic acid, dimethyl-, 5-fluoro-2-[[[(4,6,7,9-tetrahydro-3-hydroxy-9,9-dimethyl-4-oxopyrimido[2,1-c][1,4]oxazin-2-yl)carbonyl]amino]methyl]phenyl ester] showed an IC50 (HIV-integrase) of 2 to 100 nM and an EC50 (NL-Rluc virus; Human immunodeficiency virus 1, Table 2, serum condition not stated (10% FBS, 15 mg/ml human serum albumin/10% FBS or 40% human serum/5% FBS), at least 2 experiments, read-out: Activity (inhibition of HIV replication, EC50 class)) of 3 to 100 nM.
With Cc1nnn(-c2cc(F)ccc2CNC(=O)c2nc3n(c(=O)c2O)CCOC3(C)C)c1C [Example 298, Pyrimido[2,1-c][1,4]oxazine-2-carboxamide, N-[[2-(4,5-dimethyl-1H-1,2,3-triazol-1-yl)-4-fluorophenyl]methyl]-4,6,7,9-tetrahydro-3-hydroxy-9,9-dimethyl-4-oxo-] the IC50 (HIV-integrase; [1]) was 2 to 100 nM and the EC50 (NL-Rluc virus; [2]) was 3 to 100 nM.
With Cc1ncnn1-c1cc(F)ccc1CNC(=O)c1nc2n(c(=O)c1O)CCCOC2(C)C [Example 316, 6H-Pyrimido[2,1-c][1,4]oxazepine-2-carboxamide, N-[[4-fluoro-2-(5-methyl-1H-1,2,4-triazol-1-yl)phenyl]methyl]-4,7,8,10-tetrahydro-3-hydroxy-10,10-dimethyl-4-oxo-] the IC50 (HIV-integrase; [1]) was 2 to 100 nM and the EC50 (NL-Rluc virus; [2]) was 3 to 100 nM.
CC1(C)OCCCn2c1nc(C(=O)NCc1ccc(F)cc1N1CCOC1=O)c(O)c2=O [Example 304, 6H-Pyrimido[2,1-c][1,4]oxazepine-2-carboxamide, N-[[4-fluoro-2-(2-oxo-3-oxazolidinyl)phenyl]methyl]-4,7,8,10-tetrahydro-3-hydroxy-10,10-dimethyl-4-oxo-] was tested, and the IC50 (HIV-integrase; [1]) was 2 to 100 nM and the EC50 (NL-Rluc virus; [2]) was 3 to 100 nM.
CC(=O)OCCSc1cc(F)ccc1CNC(=O)c1nc2n(c(=O)c1O)CCOC2(C)C [Example 309, Pyrimido[2,1-c][1,4]oxazine-2-carboxamide, N-[[2-[[2-(acetyloxy)ethyl]thio]-4-fluorophenyl]methyl]-4,6,7,9-tetrahydro-3-hydroxy-9,9-dimethyl-4-oxo-] was tested, and the IC50 (HIV-integrase; [1]) was 2 to 100 nM and the EC50 (NL-Rluc virus; [2]) was 3 to 100 nM.
For Cc1cnnn1-c1cc(F)ccc1CNC(=O)c1nc2n(c(=O)c1O)CCOC2(C)C [Example 296, Pyrimido[2,1-c][1,4]oxazine-2-carboxamide, N-[[4-fluoro-2-(5-methyl-1H-1,2,3-triazol-1-yl)phenyl]methyl]-4,6,7,9-tetrahydro-3-hydroxy-9,9-dim ethyl-4-oxo-], the IC50 (HIV-integrase; [1]) was 2 to 100 nM and the EC50 (NL-Rluc virus; [2]) was 3 to 100 nM.
CCC1OCCn2c1nc(C(=O)NCc1ccc(F)cc1-n1ncnc1C)c(O)c2=O (stereo not shown) [Example 285, Pyrimido[2,1-c][1,4]oxazine-2-carboxamide, 9-ethyl-N-[[4-fluoro-2-(5-methyl-1H-1,2,4-triazol-1-yl)phenyl]methyl]-4,6,7,9-tetrahydro-3-hydroxy-4-oxo-] gave an EC50 (NL-Rluc virus; [2]) of 3 to 100 nM.
In the case of CC1(C)OCCn2c1nc(C(=O)NCc1ccc(F)cc1)c(O)c2=O [Example 19, Pyrimido[2,1-c][1,4]oxazine-2-carboxamide, N-[(4-fluorophenyl)methyl]-4,6,7,9-tetrahydro-3-hydroxy-9,9-dimethyl-4-oxo-], the IC50 (HIV-integrase; Table 1, read-out: Activity (HIV-integrase inhibition, IC50 class)) is reported as 2 to 100 nM, the EC50 (HIV-1 303B) is reported as 22 nM and the “overall antiviral effect of the two-drug combination with Example 19 (in words)” value (“overall antiviral effect” below) (HIV-1 303B) is reported as “synergistic or additive-synergistic”.
With CC(C)Nc1cccnc1N1CCN(C(=O)c2cc3cc(NS(C)(=O)=O)ccc3[nH]2)CC1 [Delavirdine, delavirdine] the EC50 (HIV-1 303B) was 43 nM, the “Combination Indices at 50% HIV Inhibition (Confidence Interval)” value (HIV-1 303B; [3]) was 0.76 (0.64, 0.89) and the “Combination Indices at 75% HIV Inhibition (Confidence Interval)” value (HIV-1 303B; [3]) was 0.60 (0.47, 0.74). The “Combination Indices at 90% HIV Inhibition (Confidence Interval)” value (HIV-1 303B; [3]) was 0.48 (0.31, 0.64), the “Combination Indices at 50% HIV Inhibition (Confidence Interval)” value (HIV-1 303B; [4]) was 0.68 (0.58, 0.77) and the “Combination Indices at 75% HIV Inhibition (Confidence Interval)” value (HIV-1 303B; [4]) was 0.44 (0.32, 0.54). For the same compound, the “Combination Indices at 90% HIV Inhibition (Confidence Interval)” value (HIV-1 303B; [4]) was 0.28 (0.17, 0.39), the “Combination Indices at 50% HIV Inhibition (Confidence Interval)” value (HIV-1 303B; [5]) was 0.80 (0.68, 0.92) and the “Combination Indices at 75% HIV Inhibition (Confidence Interval)” value (HIV-1 303B; [5]) was 0.53 (0.42, 0.63). For the same compound, the “Combination Indices at 90% HIV Inhibition (Confidence Interval)” value (HIV-1 303B; [5]) was 0.35 (0.25, 0.45).
With Cc1ccnc2c1NC(=O)c1cccnc1N2C1CC1 [Nevirapine, nevirapine] the EC50 (HIV-1 303B) was 95 nM, the “overall antiviral effect” value (HIV-1 303B) was “synergism at most effective concentrations and molar ratios” and the “overall antiviral effect” value (HIV-1 303B; listed as nevaripine) was “strong synergistic effects”. The “Combination Indices at 50% HIV Inhibition (Confidence Interval)” value (HIV-1 303B; [3]) was 0.72 (0.62, 0.82), the “Combination Indices at 75% HIV Inhibition (Confidence Interval)” value (HIV-1 303B; [3]) was 0.69 (0.55, 0.83) and the “Combination Indices at 90% HIV Inhibition (Confidence Interval)” value (HIV-1 303B; [3]) was 0.66 (0.46, 0.87). The “Combination Indices at 50% HIV Inhibition (Confidence Interval)” value (HIV-1 303B; [4]) was 0.76 (0.64, 0.87), the “Combination Indices at 75% HIV Inhibition (Confidence Interval)” value (HIV-1 303B; [4]) was 0.81 (0.64, 0.97) and the “Combination Indices at 90% HIV Inhibition (Confidence Interval)” value (HIV-1 303B; [4]) was 0.87 (0.59, 1.15). For the same compound, the “Combination Indices at 50% HIV Inhibition (Confidence Interval)” value (HIV-1 303B; [5]) was 0.73 (0.62, 0.83), the “Combination Indices at 75% HIV Inhibition (Confidence Interval)” value (HIV-1 303B; [5]) was 0.68 (0.55, 0.81) and the “Combination Indices at 90% HIV Inhibition (Confidence Interval)” value (HIV-1 303B; [5]) was 0.64 (0.45, 0.84).
For Cc1cn([C@H]2C[C@H](N=[N+]=[N-])[C@@H](CO)O2)c(=O)[nH]c1=O [Zidovudine], the EC50 (HIV-1 303B) was 12 nM, the “overall antiviral effect” value (HIV-1 303B) was “synergistic to additive” and the “Combination Indices at 50% HIV Inhibition (Confidence Interval)” value (HIV-1 303B; [3]) was 0.59 (0.49, 0.69). The “Combination Indices at 75% HIV Inhibition (Confidence Interval)” value (HIV-1 303B; [3]) was 0.56 (0.41, 0.70), the “Combination Indices at 90% HIV Inhibition (Confidence Interval)” value (HIV-1 303B; [3]) was 0.54 (0.36, 0.70) and the “Combination Indices at 50% HIV Inhibition (Confidence Interval)” value (HIV-1 303B; [4]) was 0.65 (0.56, 0.75). The “Combination Indices at 75% HIV Inhibition (Confidence Interval)” value (HIV-1 303B; [4]) was 0.73 (0.59, 0.86), the “Combination Indices at 90% HIV Inhibition (Confidence Interval)” value (HIV-1 303B; [4]) was 0.81 (0.57, 1.06) and the “Combination Indices at 50% HIV Inhibition (Confidence Interval)” value (HIV-1 303B; [5]) was 0.72 (0.61, 0.83). For the same compound, the “Combination Indices at 75% HIV Inhibition (Confidence Interval)” value (HIV-1 303B; [5]) was 0.83 (0.64, 1.02) and the “Combination Indices at 90% HIV Inhibition (Confidence Interval)” value (HIV-1 303B; [5]) was 0.96 (0.63, 1.30).
